Test results: PubChem BioAssay (NCI)
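Dose response: 5 concentrations. Exposure: 48 h. Format: 96-well plates. Endpoint: linear interpolation; highest concentration if not reached. GI50 marks 50% less growth. The concentration for full growth arrest is given as TGI.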

Key:
Test in all cases: NCI-60 cell line screen, 48 h
[1] = test system: 786-0 renal
[2] = test system: A498 renal
[3] = test system: A549 NSCLC
[4] = test system: ACHN renal
[5] = test system: CAKI-1 renal
[6] = test system: CCRF-CEM leukemia
[7] = test system: COLO 205 colon
[8] = test system: DU-145 prostate
[9] = test system: EKVX NSCLC
[10] = test system: HCC-2998 colon
[11] = test system: HCT-116 colon
[12] = test system: HCT-15 colon
[13] = test system: HL-60(TB) leukemia
[14] = test system: HOP-62 NSCLC
[15] = test system: HOP-92 NSCLC
[16] = test system: HS 578T breast
[17] = test system: HT29 colon
[18] = test system: IGROV1 ovarian
[19] = test system: K-562 leukemia
[20] = test system: KM12 colon
[21] = test system: LOX IMVI melanoma
[22] = test system: M14 melanoma
[23] = test system: MALME-3M melanoma
[24] = test system: MCF7 breast
[25] = test system: MDA-MB-231 breast
[26] = test system: MDA-MB-435
[27] = test system: MOLT-4 leukemia
[28] = test system: NCI-H226 lung
[29] = test system: NCI-H23 lung
[30] = test system: NCI-H460 lung
[31] = test system: NCI-H522 lung
[32] = test system: NCI/ADR-RES ovarian
[33] = test system: OVCAR-3 ovarian
[34] = test system: OVCAR-4 ovarian
[35] = test system: OVCAR-5 ovarian
[36] = test system: OVCAR-8 ovarian
[37] = test system: PC-3 prostate
[38] = test system: RPMI-8226 leukemia
[39] = test system: SF-268 CNS
[40] = test system: SF-295 CNS
[41] = test system: SF-539 CNS
[42] = test system: SK-MEL-2 melanoma
[43] = test system: SK-MEL-28 melanoma
[44] = test system: SK-MEL-5 melanoma
[45] = test system: SK-OV-3 ovarian
[46] = test system: SN12C renal
[47] = test system: SNB-19 CNS
[48] = test system: SNB-75 CNS
[49] = test system: SR leukemia
[50] = test system: SW-620 colon
[51] = test system: T-47D breast
[52] = test system: TK-10 renal
[53] = test system: U251 CNS
[54] = test system: UACC-257 melanoma
[55] = test system: UACC-62 melanoma
[56] = test system: UO-31 renal
[57] = test system: RXF 393 renal

`O=C(c1ccco1)c1c(C(F)(F)F)n([O-])c2cc(Cl)c(Cl)cc2[n+]1=O` showed a GI50 [1] of 241 nM, a TGI [1] of 456 nM and a GI50 [2] of 1530 nM. For the same compound, the TGI [2] was 3620 nM, the GI50 [3] was 1040 nM and the TGI [3] was 2550 nM. For the same compound, the GI50 [4] was 443 nM, the TGI [4] was 1110 nM and the GI50 [5] was 434 nM. The TGI [5] was 1240 nM, the GI50 [6] was 384 nM and the TGI [6] was 9500 nM. It also gave a GI50 [7] of 1820 nM, a TGI [7] of 18300 nM and a GI50 [8] of 787 nM. For the same compound, the TGI [8] was 2030 nM, the GI50 [9] was 887 nM and the TGI [9] was 1860 nM. The GI50 [10] was 606 nM, the TGI [10] was 1260 nM and the GI50 [11] was 269 nM. For the same compound, the TGI [11] was 921 nM, the GI50 [12] was 233 nM and the TGI [12] was 654 nM. The GI50 [13] was 81.2 nM, the TGI [13] was 180 nM and the GI50 [14] was 316 nM. The TGI [14] was 1000 nM, the GI50 [15] was 851 nM and the TGI [15] was 2150 nM. It also gave a GI50 [16] of 706 nM, a TGI [16] of 1980 nM and a GI50 [17] of 1220 nM. The TGI [17] was 17300 nM, the GI50 [18] was 113 nM and the TGI [18] was 2530 nM. For the same compound, the GI50 [19] was 173 nM, the TGI [19] was 2870 nM and the GI50 [20] was 186 nM. For the same compound, the TGI [20] was 750 nM, the GI50 [21] was 169 nM and the TGI [21] was 520 nM. It also gave a GI50 [22] of 715 nM, a TGI [22] of 1460 nM and a GI50 [23] of 824 nM. It also gave a TGI [23] of 1810 nM, a GI50 [24] of 123 nM and a TGI [24] of 452 nM. The GI50 [25] was 843 nM, the TGI [25] was 1770 nM and the GI50 [26] was 877 nM. For the same compound, the TGI [26] was 1810 nM, the GI50 [27] was 59.1 nM and the TGI [27] was 1410 nM. The GI50 [28] was 1150 nM, the TGI [28] was 3010 nM and the GI50 [29] was 545 nM. For the same compound, the TGI [29] was 1360 nM, the GI50 [30] was 121 nM and the TGI [30] was 361 nM. The GI50 [31] was 202 nM, the TGI [31] was 1330 nM and the GI50 [32] was 845 nM. It also gave a TGI [32] of 1780 nM, a GI50 [33] of 79.8 nM and a TGI [33] of 316 nM. For the same compound, the GI50 [34] was 4170 nM, the TGI [34] was 12700 nM and the GI50 [35] was 935 nM. It also gave a TGI [35] of 1760 nM, a GI50 [36] of 1030 nM and a TGI [36] of 6600 nM. It also gave a GI50 [37] of 230 nM, a TGI [37] of 1010 nM and a GI50 [38] of 196 nM. The TGI [38] was 3290 nM, the GI50 [39] was 236 nM and the TGI [39] was 774 nM. The GI50 [40] was 247 nM, the TGI [40] was 825 nM and the GI50 [41] was 768 nM. The TGI [41] was 1530 nM, the GI50 [42] was 3070 nM and the TGI [42] was 8890 nM. It also gave a GI50 [43] of 2970 nM, a TGI [43] of 6450 nM and a GI50 [44] of 727 nM. The TGI [44] was 1450 nM, the GI50 [45] was 2950 nM and the TGI [45] was 5830 nM. It also gave a GI50 [46] of 650 nM, a TGI [46] of 1410 nM and a GI50 [47] of 6410 nM. The TGI [47] was 14800 nM, the GI50 [48] was 6160 nM and the TGI [48] was 13600 nM. It also gave a GI50 [49] of 49.7 nM, a TGI [49] of 50000 nM and a GI50 [50] of 873 nM. It also gave a TGI [50] of 2480 nM, a GI50 [51] of 7030 nM and a TGI [51] of 15300 nM. The GI50 [52] was 943 nM, the TGI [52] was 1730 nM and the GI50 [53] was 705 nM. For the same compound, the TGI [53] was 1430 nM, the GI50 [54] was 761 nM and the TGI [54] was 2150 nM. The GI50 [55] was 705 nM, the TGI [55] was 1490 nM and the GI50 [56] was 46.5 nM. For the same compound, the TGI [56] was 211 nM.
With `CCOc1ccc(-c2nc3ccc(-c4nc5ccc(N6CCN(C)CC6)cc5[nH]4)cc3[nH]2)cc1OCC` the GI50 [1] was 2080 nM, the TGI [1] was 5930 nM and the GI50 [2] was 1510 nM. For the same compound, the TGI [2] was 4580 nM, the GI50 [3] was 8340 nM and the TGI [3] was 28500 nM. It also gave a GI50 [4] of 3480 nM, a TGI [4] of 13900 nM and a GI50 [5] of 2710 nM. For the same compound, the TGI [5] was 17600 nM, the GI50 [6] was 2040 nM and the TGI [6] was 22800 nM. The GI50 [7] was 322 nM, the TGI [7] was 2000 nM and the GI50 [8] was 2370 nM. It also gave a TGI [8] of 8100 nM, a GI50 [9] of 5060 nM and a TGI [9] greater than 100000 nM. The GI50 [11] was 529 nM, the TGI [11] was 2720 nM and the GI50 [12] was 15000 nM. The TGI [12] was greater than 100000 nM, the GI50 [13] was 1160 nM and the TGI [13] was 4700 nM. For the same compound, the GI50 [14] was 2860 nM, the TGI [14] was 7520 nM and the GI50 [15] was 1350 nM. It also gave a TGI [15] of 8730 nM, a GI50 [16] of 1740 nM and a TGI [16] of 5460 nM. For the same compound, the GI50 [17] was 2600 nM, the TGI [17] was 12100 nM and the GI50 [18] was 1940 nM. The TGI [18] was 6200 nM, the GI50 [19] was 778 nM and the TGI [19] was 9010 nM. The GI50 [20] was 3880 nM, the TGI [20] was 15800 nM and the GI50 [22] was 831 nM. It also gave a TGI [22] of 3840 nM, a GI50 [23] of 222 nM and a TGI [23] of 1230 nM. The GI50 [24] was 498 nM, the TGI [24] was 3050 nM and the GI50 [25] was 2250 nM. The TGI [25] was 7090 nM, the GI50 [26] was 1010 nM and the TGI [26] was 2380 nM. It also gave a GI50 [27] of 2750 nM, a TGI [27] of 9760 nM and a GI50 [28] of 1170 nM. For the same compound, the TGI [28] was 4800 nM, the GI50 [29] was 1520 nM and the TGI [29] was 4450 nM. It also gave a GI50 [30] of 3140 nM, a TGI [30] of 10400 nM and a GI50 [31] of 1160 nM. The TGI [31] was 3800 nM, the GI50 [32] was greater than 100000 nM and the TGI [32] was greater than 100000 nM. For the same compound, the GI50 [33] was 648 nM, the TGI [33] was 2630 nM and the GI50 [34] was 2190 nM. It also gave a TGI [34] of 6790 nM, a GI50 [35] of 4370 nM and a TGI [35] of 14200 nM. The GI50 [36] was 2660 nM, the TGI [36] was 14500 nM and the GI50 [37] was 1420 nM. For the same compound, the TGI [37] was 10400 nM, the GI50 [38] was 2940 nM and the TGI [38] was 13800 nM. It also gave a GI50 [57] of 1140 nM, a TGI [57] of 2490 nM and a GI50 [39] of 1850 nM. It also gave a TGI [39] of 6900 nM, a GI50 [40] of 1980 nM and a TGI [40] of 16100 nM. The GI50 [41] was 1200 nM, the TGI [41] was 2710 nM and the GI50 [42] was 1490 nM. It also gave a TGI [42] of 3270 nM, a GI50 [43] of 701 nM and a TGI [43] of 2180 nM. The GI50 [44] was 1290 nM, the TGI [44] was 3710 nM and the GI50 [45] was 2490 nM. It also gave a TGI [45] of 9410 nM, a GI50 [46] of 1940 nM and a TGI [46] of 10900 nM. It also gave a GI50 [47] of 2000 nM, a TGI [47] of 11100 nM and a GI50 [48] of 1030 nM. It also gave a TGI [48] of 2560 nM, a GI50 [49] of 678 nM and a TGI [49] of 7780 nM. For the same compound, the GI50 [50] was 796 nM, the TGI [50] was 2890 nM and the GI50 [51] was 946 nM. For the same compound, the TGI [51] was 5570 nM, the GI50 [52] was 6220 nM and the TGI [52] was 38900 nM. For the same compound, the GI50 [53] was 1320 nM, the TGI [53] was 6710 nM and the GI50 [54] was 1330 nM. The TGI [54] was 4760 nM, the GI50 [55] was 643 nM and the TGI [55] was 2580 nM. For the same compound, the GI50 [56] was 12400 nM and the TGI [56] was 35900 nM.
